d = 2'-deoxy (DNA); r = 2'-OH (RNA)
Assays:
[1] = tested on: NFKBIZ mRNA; test: NFKBIZ mRNA expression by RT-qPCR in LPS-stimulated HCECs; format: cell-based, human; settings: LPS-stimulated (100 ng/mL) HCECs, 10 μM ASO or siRNA, without transfection reagent, 6 h + 48 h
Protocol: HCECs were inoculated in a 6-well plate at a density of 1×10^5 cells/well and cultured until adherence. The cells were then stimulated with 100 ng/mL lipopolysaccharide (LPS) overnight. After removing the supernatant, 1 mL of Opti-MEM medium containing ASONFKBIZ-h, ASONFKBIZ-h+Lipofectamine2000 (Lipo2000), and CsA-ASONFKBIZ-h (all containing 10 µM ASO) were added, respectively. Cells without any treatment were used as a blank reference (Mock). After incubation at 37° C. for 6 h, the cells were transferred into DMEM medium and incubated for another 48 h. The cells were collected and RNA was extracted for RT-qPCR to analyze the expression level of the NFKBIZ mRNA in HCECs, and experimental results were shown in FIG. 9. The expression level of NFKBIZ mRNA in HCECs after LPS stimulation was about 1.3 times that of normal cells. […] After adding CsA-ASONFKBIZ-h for co-incubation, the expression of NFKBIZ mRNA was reduced to about 0.8 times that of normal cells.
(§1) HCECs were inoculated in a 6-well plate at a density of 1×10^5 cells/well and cultured until adherence. The cells were then stimulated with 100 ng/mL LPS overnight. After removing the supernatant, 1 mL of Opti-MEM medium containing ASONFKBIZ-h+Lipo2000 complex and 2CsA-ASONFKBIZ-h nanomicelles (all containing 10 µM ASO) were added, respectively. After incubation at 37° C. for 6 h, the cells were transferred into DMEM medium and incubated for another 48 h. The cells were collected and RNA was extracted for RT-qPCR to analyze the expression level of the NFKBIZ mRNA in HCECs, and experimental results were shown in FIG. 12.
as §1, with “ng/ml” for “ng/mL”, “3CsA-ASONFKBIZ-h” for “2CsA-ASONFKBIZ-h”, “15.” for “12.”
HCECs were inoculated in a 6-well plate at a density of 1×10^5 cells/well and cultured until adherence. The cells were then stimulated with 100 ng/mL LPS overnight. 1 mL of Opti-MEM medium containing ASONFKBIZ-h+Lipo2000 complex and CsA3-ASONFKBIZ-h nanomicelles (all containing 10 µM ASO) were added, respectively. After incubation at […]. 37° C. for 6 h, the cells were transferred into DMEM medium and incubated for another 48 h. After collected and RNA was extracted for RT-qPCR to evaluate the expression level of NFKBIZ mRNA in HCECs, and the experimental results were shown in FIG. 23.
HCECs were inoculated in a 6-well plate at a density of 1×10^5 cells/well and cultured overnight until adherence. The cells were then stimulated with 100 ng/ml LPS for 12 h. After removing the supernatant, 1 mL of Opti-MEM medium containing siRNANFKBIZ-h+Lipo2000 complex and nCsA-siRNANFKBIZ-h (n=1, 2, 3) conjugates and nanomicelles (all containing 10 μM siRNA) were added, respectively. After incubation at 37° C. for 6 h, the cells were transferred into DMEM medium and incubated for another 48 h. The cells were collected and RNA was extracted for RT-qPCR to evaluate the expression of NFKBIZ mRNA in HCECs, and experimental results were shown in FIG. 27. […]

[2] = tested on: Human corneal epithelial cells (HCECs); test: Cellular uptake of FITC-labelled conjugate by flow cytometry; format: cell-based
Protocol: Human corneal epithelial cells (HCECs) were inoculated at a density of 5×10^4 cells/well in a 12-well plate and cultured overnight. After the medium was removed, 0.5 mL of fresh medium containing 10 μM or 100 μM CsA-ASONFKBIZ-h conjugate with FITC fluorescence was added and incubated with HCECs for 6 h, while a well plate without conjugate was used as a blank control (Mock group). After the incubation, the supernatant medium was discarded, and then the cells were digested with trypsin and washed 2 to 3 times with phosphate-buffered saline (PBS, pH=7.2). After the cells were collected, flow cytometric analysis was conducted using a flow cytometer, and experimental results were shown in FIGS. 8A-8B.

Q: “3CsA-ASONFKBIZ-h: three CsA molecules coupled to 3DBCO ASO targeting human NFKBIZ (SEQ ID 5), self-assembled (ATCAGACAACGAATCGGGCNTNTT; three CsA via DBCO click; modified_base 20 OTHER; n is t base modified with DBCO moiety; modified_base 22 OTHER)” was tested. Which “expression of NFKBIZ mRNA relative to normal cells” value [1] did it give?
A: about 0.75 times that of normal cells

Q: What does the source list for “CsA-ASONFKBIZ-h: single cyclosporin A (CsA-N3) click-coupled to 3′-DBCO ASO targeting human NFKBIZ gene (SEQ ID NO: 1) (ATCAGACAACGAATCGGGC; 3'-DBCO ASO click-conjugated to one cyclosporin A, sugar and linkages not given here, further chemistry not given here)”?
A: cellular uptake ([2]; 10 μM or 100 μM FITC-labelled conjugate, 6 h): effectively taken up by cells; average fluorescence intensity of cells, 100 UM versus 10 μM conjugate ([2]; FITC-labelled conjugate, 6 h incubation, flow cytometry): approximately 10 times; expression of NFKBIZ mRNA relative to normal cells [1]: about 0.8 times that of normal cells

Q: “CsA-siRNANFKBIZ-h: one CsA coupled to sense strand of siRNA targeting human NFKBIZ (SEQ ID NO: 9/10) (sense GCCCGAUUCGUUGUCUGAUTT; antisense AUCAGACAACGAAUCGGGCTT; sugars from the 5' end r19 d2, backbone not given here; DBCO clicked to azide-modified cyclosporin A, further chemistry not fully specified)” was tested. Which “expression of NFKBIZ mRNA relative to normal cells” value [1] did it give?
A: level before LPS stimulation

Source: US20250367302A1, “SMALL MOLECULE DRUG-OLIGONUCLEOTIDE CONJUGATE AND USE THEREOF” (SHANGHAI JIAO TONG UNIVERSITY, priority 2022, published 2025)
